According to patent publication US11738095B2, “Cyanine-containing compounds for cancer imaging and treatment” (Emory University, priority 2007, dated 2023):
“Also recorded” adds a separate entry of the source.

Assays:
[1] = tested on: ARCaPM prostate cancer cells and P69 normal prostate epithelial cells; experiment: confocal fluorescence imaging of IR783 uptake, cancer versus normal cells (FIG. 14); format: cell-based, human
Description: After being washed in PBS to remove free dyes, the cells were subject to confocal fluorescence imaging. DAPI, added together with IR783, was used as a positive control for the staining of the cell nucleus. P69, representing normal human prostate epithelial cells, was stained in parallel. Images were acquired by Zeiss LSM 510 META confocal microscopy. […] 100 μM BSP was used to pre-incubate with ARCaPM, before 50 μM IR783 was added.

[2] = tested on: PDAC-2.3, PDAC-3.3, BTC-3, BTC-5; experiment: uptake of IR783 in cell lines: pancreatic; format: cell-based, human
Source text: The uptake of IR783 was studied and confirmed in a variety of human cell lines as shown below: […]

[3] = tested on: human renal tissues freshly obtained from surgery; experiment: staining of fresh human renal tumor specimens with IR783 (FIG. 20)
Source text: The compounds of the invention can also be used to detect cancer in fresh (or frozen or preserved) cells. In one embodiment of this aspect of the invention, cells are obtained from small needle biopsy, needle aspiration, or other methods as known in the art. The cells after dye uptake is completed can be minced, sliced, smeared onto a slide, or any other preparation. An amount of one or more compound of the invention can be dropped onto the cells or otherwise contacted with the cells (shaken in a tube, for example). […] The cells can be imaged under a fluorescence microscope equipped with a NIR filter, for example.

[4] = tested on: orthotopic prostate ARCaPM tumor; experiment: NIR imaging to assess pharmacokinetics of IR783 in vivo (FIG. 16A, 19); design: species or system mouse
Description: NIR imaging studies were performed to assess pharmacokinetics of the IR783 in vivo. […] This mouse was injected i.p with 0.2 μg/kg IR783 at 0 hrs.

With CC1(C)C(=CC=C2CCCC(C=CC3=[N+](CCCCS(=O)(=O)[O-])c4ccccc4C3(C)C)=C2Cl)N(CCCCS(=O)(=O)[O-])c2ccccc21.[Na+] [IR783] the “uptake by cancer cells at 0° C.” value ([1]; 0° C., data not shown) was “no uptake”, the “uptake, ARCaPM compared with P69” value ([1]; 50 μM, 37° C., 30 min) was “only in the cancer cells” and the “effect of BSP on uptake by ARCaPM cells” value ([1]; 100 μM BSP pre-incubation, 50 μM IR783) was “inhibited by BSP; also recorded: completely abolished”. The “time dependence of uptake” value ([1]; ARCaPM, FIG. 14) was “time-dependent fashion”, the “dose dependence of uptake” value ([1]; ARCaPM, data not shown) was “dose-dependent fashion” and the Uptake [2] was “Strong”. For the same molecule, the “distribution in renal tissue, confocal microscopy” value ([3]; tissues incubated with IR783, washed) was “concentrated in renal cancer but not normal kidney cells”, the “fluorescence imaging of tumor regions” value ([3]; tumor, transitional and normal sections) was “intense uptake and retention” and the non-specific imaging ([4]; 0.2 μg/kg i.p) was “non-specific imaging can be seen in the first 24 hrs, predominantly in the liver”. The retention in tumors ([4]; 0.2 μg/kg i.p, 3.4 cm^3 orthotopic ARCaPM tumor) was “more than 4 days”, the initial distribution ([4]; 0.2 μg/kg i.v or i.p) was “initially accumulated in liver, lung and spleen” and the “time at which dye appeared in tumor” value ([4]; 0.2 μg/kg i.v or i.p) was 24 h. For the same molecule, the “time after which tumors and metastases can be readily identified” value ([4]; ARCaP orthotopic tumors, FIG. 19) was 24 to 48 h, the “signal in mice without tumors” value ([4]; data not shown) was “background activity” and the “accumulation in gall bladder or urinary bladder” value ([4]; mouse, in vivo) was “not detected”. The “time of accumulation in tumor and metastases” value ([4]; orthotopic xenograft ARCaPm tumor, FIG. 16 legend) was 24 to 96 h.
